{"source": "paper PMC6114082", "about": "“Synthesis of aminophenylhydroxamate and aminobenzylhydroxamate derivatives and in vitro screening for antiparasitic and histone deacetylase inhibitory activity” (International Journal for Parasitology: Drugs and Drug …, 2018)", "key": {"[1]": {"tested_on": "L. tropica MHOM/BR/73/5-ASKM", "assay": "Antileishmanial activity, L. tropica promastigotes", "type": "cell-based, Leishmania tropica", "conditions": "Leishmania tropica", "description": "(§1) The antitrypanosomatid activity of the compounds was ascertained as follows. Leishmania parasites were cultured at 26 °C in SDM-79 medium supplemented with 10% fetal calf serum (FCS), and the antileishmanial activity was determined according to a previously published protocol for LUC-expressing and wild-type Leishmania ([Sereno et al., 2001], [Abbassi et al., 2008]). Trypanosoma brucei gambiense were grown at 26 °C in Cunningham's medium supplemented with 10% FCS, 2 mM GlutaMAX-1 (Gibco, USA), 100 U/ml penicillin, 100 μg/ml streptomycin and […] bovine hemin. The epimastigote form of Trypanosoma cruzi (strain Y cl7 scl2, lineage Tc2) (kindly provided by Philippe Truc and Christian Barnabé, UMR 177 IRD-CIRAD InterTryp, Montpellier, France) were grown at 26 °C in liver infusion tryptose (LIT) medium, supplemented with 10% FCS, 2 mM GlutaMAX™-I, 100 U/ml penicillin, 100 μg/ml streptomycin and bovine hemin (20 mg/l) (Gibco). The antitrypanosomatids activity was determined using a protocol that was initialy set up for wild-type Leishmania ([Abbassi et al., 2008]). To assess the drug activity on Toxoplasma gondii, confluent human foreskin fibroblast (HFF) monolayers were infected with YFP-type I Rh kindly provided by B. Striepen, see ([Striepen et al., 1998]) or Tomato-type II Pru kindly provided by N. Blanchard (Toulouse), expressing parasites at 5 × 10^4 per well, which were then centrifuged for 30 s at 1300 rpm and incubated for 30 min in a water bath at 37 °C to allow invasion. The wells were then washed three times with PBS to eliminate extracellular parasites, and the drugs were added at various concentrations ranging from 1 to 50 μM. After incubation for 24 h at 37 °C in a humidified atmosphere containing 5% CO2, the cells were fixed in 2.5% methanol-free formaldehyde (Tebu-bio)/PBS for 30 min at room temperature. Nuclei were stained with Hoechst 33258 (2 μg/ml, Molecular Probes) for 20 min and then washed three times with water for 10 min each time. The number of infected cells, i.e., cells harboring a parasitophorous vacuole, and the number of parasites per vacuole were determined using an Olympus ScanR microscope ( × 20 objective) and ScanR software. The parasitic index in % compared to the control was calculated as follows: (PI=((number of parasite/100 cells in treated wells) x (% of infected macrophage in treated well)/(number of parasite/100 cells in untreated wells) x (% of infected macrophage in untreated wells))*100)."}, "[2]": {"tested_on": "L. braziliensis MHOM/BR/75/M209", "assay": "Antileishmanial activity, L. braziliensis promastigotes (luciferase expressing strain)", "type": "cell-based, Leishmania braziliensis", "conditions": "Leishmania braziliensis", "description": "as §1"}, "[3]": {"tested_on": "L. infantum MHOM/MA/67/ITMAP-264", "assay": "Antileishmanial activity, L. infantum promastigotes (luciferase expressing strain)", "type": "cell-based, Leishmania infantum", "description": "as §1"}, "[4]": {"tested_on": "Pru Type II strain of T. gondii", "assay": "Anti-Toxoplasma activity in infected HFF monolayers, type II Pru strain", "type": "cell-based, Toxoplasma gondii", "conditions": "for IC50: 24 h, type II strain, in HFF", "description": "as §1, with “The wells were then washed three times with PBS to eliminate extracellular parasites, and the drugs were added at various concentrations ranging from 1 to 50 μM. After incubation for 24 h at 37 °C in a humidified atmosphere containing 5% CO2, the cells were fixed in 2.5% methanol-free formaldehyde (Tebu-bio)/PBS for 30 min at room temperature. Nuclei were stained with Hoechst 33258 (2 μg/ml, Molecular Probes) for 20 min and then washed three times with water for 10 min each time.” left out"}, "[5]": {"assay": "Cytotoxicity, MTT assay, HFF", "type": "cell-based, human", "conditions": "human, HFF cells", "description": "(§2) The human monocytic cell line THP-1 was cultivated in RPMI medium supplemented with 10% FCS, 2 mM GlutaMAX, 100 U/ml penicillin, and 100 μg/ml streptomycin. HFF cells were cultivated in Dulbecco's modified Eagle's medium (DMEM) with Earle's salts containing 10% FCS, 10 mM HEPES, 1 mM sodium pyruvate, 2 mM GlutaMAX, 100 U/ml penicillin, and 100 μg/ml streptomycin. The THP-1 and HFF cells were maintained in a 5% CO2 incubator at 37 °C. Cytotoxicity was evaluated via the MTT assay, and the IC50 values were calculated using Prism software (Prism 4 for Mac OS X, version 5.0b, December, 2008)."}, "[6]": {"assay": "Cytotoxicity, MTT assay, THP-1", "type": "cell-based, human", "conditions": "human, THP-1 cells (monocytic cell line); MTT assay", "description": "as §2"}, "[7]": {"tested_on": "THP-1 cells", "assay": "Cytotoxicity, MTT assay, THP-1", "type": "cell-based, human", "description": "as §2"}, "[8]": {"assay": "Cytotoxicity, HEPG2 cell line", "type": "cell-based, human", "conditions": "human, HepG2 cells"}, "[9]": {"tested_on": "HEPG2 cells", "assay": "Cytotoxicity, HEPG2 cell line", "type": "cell-based, human"}, "[10]": {"molecular_target": "T1, HDAC 3 (Homo sapiens, UniProt O15379)", "T1 construct": "purchased Active Motif, Belgium", "T1 sequence (O15379 whole entry)": "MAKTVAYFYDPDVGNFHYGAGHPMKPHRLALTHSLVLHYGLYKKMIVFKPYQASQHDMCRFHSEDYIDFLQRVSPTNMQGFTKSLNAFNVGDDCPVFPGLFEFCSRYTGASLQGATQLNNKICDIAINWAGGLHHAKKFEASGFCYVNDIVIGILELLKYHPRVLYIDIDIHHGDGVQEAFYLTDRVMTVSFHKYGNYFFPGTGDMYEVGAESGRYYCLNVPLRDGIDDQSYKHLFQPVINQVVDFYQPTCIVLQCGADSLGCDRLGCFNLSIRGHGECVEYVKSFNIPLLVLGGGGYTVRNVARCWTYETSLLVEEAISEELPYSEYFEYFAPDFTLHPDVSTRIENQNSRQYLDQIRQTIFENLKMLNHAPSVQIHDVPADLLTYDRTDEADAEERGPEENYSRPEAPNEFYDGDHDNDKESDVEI", "T1 sequence (O75376 395-489 partner limits assumed)": "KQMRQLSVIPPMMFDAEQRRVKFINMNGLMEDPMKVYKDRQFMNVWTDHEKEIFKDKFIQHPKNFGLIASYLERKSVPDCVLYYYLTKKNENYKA", "assay": "Fluorometric HDAC assay, recombinant HDAC3", "type": "biochemical", "description": "(§3) The HDACi effect against HeLa nuclear extracts and recombinant proteins were measured using a fluorometric HDAC assay kit (Active Motif, Belgium) according to the manufacturer's instructions. […] A negative control containing trichostatin A at a final concentration of 2 μM was analyzed for each independent experiment."}, "[11]": {"molecular_target": "T2, HDAC 8 (Homo sapiens, UniProt Q9BY41)", "T2 construct": "purchased Active Motif, Belgium", "T2 sequence (Q9BY41 1-377)": "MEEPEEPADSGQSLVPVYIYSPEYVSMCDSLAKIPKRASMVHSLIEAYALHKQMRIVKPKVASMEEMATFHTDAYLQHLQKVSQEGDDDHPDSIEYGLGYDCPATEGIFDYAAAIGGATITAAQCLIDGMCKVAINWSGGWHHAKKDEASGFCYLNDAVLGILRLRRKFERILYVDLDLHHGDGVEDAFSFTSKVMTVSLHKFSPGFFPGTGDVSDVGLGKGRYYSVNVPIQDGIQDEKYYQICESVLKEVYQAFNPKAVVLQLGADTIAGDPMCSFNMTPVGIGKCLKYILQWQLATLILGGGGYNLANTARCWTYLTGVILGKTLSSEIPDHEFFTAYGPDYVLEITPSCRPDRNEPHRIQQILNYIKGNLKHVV", "assay": "Fluorometric HDAC assay, recombinant HDAC8", "type": "biochemical", "description": "as §3"}, "[12]": {"tested_on": "T. gondii deacetylase activity (total protein extract)", "assay": "Deacetylase activity of total protein extract of T. gondii tachyzoites", "type": "biochemical, Toxoplasma gondii", "conditions": "0.125 μM", "description": "as §3\nHDAC activity was determined from total protein extracted from T. gondii."}}, "data": [{"smiles": "COc1cccc(CC(=O)Nc2ccc(C(=O)NO)cc2)c1", "note": "[Compound 363, N-hydroxy-4-[2-(3-methoxyphenyl)acetamido]benzamide]", "values": [{"measurement": "IC50", "setting": "[1]", "value": "> 60000", "unit": "nM"}, {"measurement": "IC50", "setting": "[2]", "value": "> 60000", "unit": "nM"}, {"measurement": "IS^b selectivity index for L. infantum", "setting": "[3]; IC50 THP-1 / IC50 Leishmania infantum (footnote)", "value": "<1"}, {"measurement": "IC50", "setting": "[3]; Leishmania infantum, promastigotes, luciferase expressing strain", "value": "> 60000", "unit": "nM"}, {"measurement": "IS^a selectivity index for T. gondii, second value marked #", "setting": "[4]; IC50 HFF / IC50 T. gondii type II Pru strain", "value": 46}, {"measurement": "IC50", "setting": "[4]; Toxoplasma gondii", "value": 2250, "unit": "nM"}, {"measurement": "IC50", "setting": "[4]", "value": 2270, "unit": "nM"}, {"measurement": "IC50", "setting": "[5]", "value": "105000 ± 10500", "unit": "nM"}, {"measurement": "IC50", "setting": "[6]", "value": "3600 ± 500", "unit": "nM"}, {"measurement": "selectivity index, THP-1 cells vs T. gondii", "setting": "[7]", "value": 10}, {"measurement": "IC50", "setting": "[8]", "value": "> 15000", "unit": "nM"}, {"measurement": "index of selectivity, HEPG2 vs T. gondii tachyzoites", "setting": "[9]", "value": 42}, {"measurement": "Fold, HDAC 3", "setting": "[10]; 363 as compared to SAHA", "value": 1.06}, {"measurement": "IC50", "setting": "[10]; recombinant protein, read-out: rHDAC 3 IC50", "value": "160 ± 52", "unit": "nM"}, {"measurement": "Fold, HDAC 8", "setting": "[11]; 363 as compared to SAHA", "value": 0.26}, {"measurement": "IC50", "setting": "[11]; recombinant protein, read-out: rHDAC 8 IC50", "value": "863 ± 45", "unit": "nM"}, {"measurement": "inhibition of T. gondii deacetylase activity", "setting": "[12]", "value": 44, "unit": "%"}]}]}
